Patent US12319929B2, “Compositions and methods for the treatment of Parkinson's disease” (VOYAGER THERAPEUTICS, INC., priority 2018, dated 2025)

Test system: patients with motor response fluctuations
Experiment: UPDRS III AUC response to threshold and suprathreshold IV levodopa infusion
Type: in vivo, human
Conditions: Baseline before AAV2-hAADC
Description: On sequential days, patients received either a threshold (0.6 mg/mL; low-dose) or suprathreshold (1.2 mg/mL; high-dose) infusion of IV levodopa dosed at 1 mL/kg/hr for 2 hours. The order and threshold of IV levodopa dosing was randomized and double-blinded (LHLH, LHHL, HLHL, HLLH).
Oral carbidopa (25 mg) was administered 1-2 hours before, during, and 1-2 hours after the infusion. Participants' motor response was measured by UPDRS III (time to 30% change and duration of 30% responses); bradykinesia was measured by finger tapping rate; and dyskinesia was measured by Abnormal Involuntary Movement Scale (AIMS) scoring. Pharmacokinetics were assessed every 30 minutes after administration of IV levodopa.
Results for Group 1 are shown in FIG. 12a: results for Group 2 are shown in FIG. 12b; and results for Group 3 are shown in FIG. 12c.

## N[C@@H](Cc1ccc(O)c(O)c1)C(=O)O [IV Levodopa, L-3,4-dihydroxyphenylalanine]
Suprathreshold (1.2 mg/kg/hr) IV Levodopa, Group 1 (N = 5)
  UPDRS III AUC, mean (standard error): −72.8 (13.1)
Suprathreshold (1.2 mg/kg/hr) IV Levodopa, Group 2 (N = 5)
  UPDRS III AUC, mean (standard error): −45.0 (13.5)
Suprathreshold (1.2 mg/kg/hr) IV Levodopa, Group 3 (N=3)
  UPDRS III AUC, mean (standard error): −41.1 (13.8)
Threshold (0.6 mg/kg/hr) IV Levodopa, Group 1 (N = 5)
  UPDRS III AUC, mean (standard error): −22.1 (9.7)
Threshold (0.6 mg/kg/hr) IV Levodopa, Group 2 (N = 5)
  UPDRS III AUC, mean (standard error): −21.8 (5.9)
Threshold (0.6 mg/kg/hr) IV Levodopa, Group 3 (N=3)
  UPDRS III AUC, mean (standard error): −16.1 (11.4)
